The target of data set [1] is T1, human ether-a-go-go related gene (hERG) channel (Homo sapiens, UniProt Q12809).
T1 construct: expressed in transfected cells; host or cells: HEK293
Kind of data set: hERG test, whole-cell patch-clamp, IKr. Type of data set: cell-based. The following applies: 1 μmol/L compound; HEK293 cell expressing hERG. From the text:
For the purpose of risk evaluation of QT interval extension of electrocardiogram, the activity on delayed rectification K^+ current (IKr), which plays an important role in a cardiac ventricle repolarization process, was examined using the HEK293 cell that was made to express human ether-a-go-go related gene (hERG) channel.
Using an automatic patch-clamp system (PatchXpress 7000A, Axon Instruments Inc.), by a whole-cell patch-clamp method, after the cell was maintained at a membrane potential of −80 mV, IKr induced upon applying depolarizing stimulation of +50 mV for 2 seconds and further applying repolarizing stimulation of −50 mV for 2 seconds was recorded. After generated electric current became stable, a test substance dissolved at an intended concentration in extracellular fluid (137 mmol/L NaCl, 4 mmol/L KCl, 1.8 mmol/L CaCl2.2H2O, 1 mmol/L MgCl2.6H2O, 10 mmol/L glucose, 10 mmol/L HEPES (4-(2-hydroxyethyl)-1-piperazineethanesulfonic acid), pH=7.4) was applied to the cell for 10 minutes under room temperature condition. From the obtained IKr, the absolute value of the maximum tail current was measured using analysis software (DataXpress ver. 1, Molecular Devices Corporation) and the value of the electric current in a maintained membrane potential as baseline. Moreover, an inhibition ratio for the maximum tail current prior to the application of the test substance was calculated and then compared with a group of media-application (0.1% dimethylsulfoxide solution) to evaluate influence of the test substance on IKr.

Data set [2] deals with Salmonella typhimurium TA98 line, TA100 line. Kind of data set: Fat Test (mutagenicity in Salmonella typhimurium). Type of data set: cell-based. Also noted: key: When the mutagenicity is negative, the compound is shown as (−); When positive, the compound is shown as (+). The following applies: TA98 and TA100 lines, non-metabolism-activation and metabolism-activation conditions. The method, then:
20 μL of Salmonella enterica subsp. typhimurium (Salmonella typhimurium TA98 line, TA100 line) cryopreserved was inoculated to 10 mL of liquid nutrient medium (2.5% Oxoid nutrient broth No. 2) and then precultured at 37° C. for 10 hours with shaking. Regarding TA98 line, after 9 mL of a bacterial suspension was centrifuged (2000×g, 10 minutes) to remove the culture solution, the bacteria was suspended in 9 mL of Micro F buffer solution (K2HPO4: 3.5 g/L, KH2PO4: 1 g/L, (NH4)2SO4: 1 g/L, tri-sodium citric acid dihydrate: 0.25 g/L, MgSO4.7H2O: 0.1 g/L), and then added to 110 mL of Exposure media (Micro F buffer solution containing biotin: 8 μg/mL, histidine: 0.2 μg/mL, glucose: 8 mg/mL). Regarding TA 100 line, 120 mL of Exposure media was added to 3.16 mL of the bacterial suspension to prepare a test bacterial suspension. 12 μL of a solution of a test substance in DMSO (diluted eight times in a common ratio of 2 from the maximum dose of 50 mg/mL); 12 μL of DMSO as a negative control; 50 μg/mL 4-nitroquinoline-1-oxide solution in DMSO for TA98 line or 0.25 μg/mL 2-(2-furyl)-3-(5-nitro-2-furyl)acrylamide solution in DMSO as a positive control for TA 100 line in the case of a non-metabolism-activation condition; 12 μL of 40 μg/mL 2-aminoanthracene solution in DMSO for TA98 line or 20 μg/mL of 2-aminoanthracene solution in DMSO for TA100 line in the case of a metabolism-activation condition; were each mixed with 588 μL of the test bacterial suspension (in the case of a metabolism activation condition, a mixed solution of 498 μL of the test bacterial suspension and 90 μL S9 mix) and then cultured at 37° C. at 90 minutes with shaking. 460 μL of the bacterial suspension to which a test substance was exposed was mixed with 2300 μL of Indicator media (a Micro F buffer solution containing 8 μg/mL biotin, 0.2 μg/mL histidine, 8 mg/mL glucose, and 37.5 μg/mL bromocresol purple). […] Thus, in 48 wells per dose, the number of the bacteria-proliferation wells in which the color changed to yellow was counted, compared with a group of negative controls, and then evaluated. […]

The structures appear in SMILES notation.

T1 sequence (Q12809 whole entry): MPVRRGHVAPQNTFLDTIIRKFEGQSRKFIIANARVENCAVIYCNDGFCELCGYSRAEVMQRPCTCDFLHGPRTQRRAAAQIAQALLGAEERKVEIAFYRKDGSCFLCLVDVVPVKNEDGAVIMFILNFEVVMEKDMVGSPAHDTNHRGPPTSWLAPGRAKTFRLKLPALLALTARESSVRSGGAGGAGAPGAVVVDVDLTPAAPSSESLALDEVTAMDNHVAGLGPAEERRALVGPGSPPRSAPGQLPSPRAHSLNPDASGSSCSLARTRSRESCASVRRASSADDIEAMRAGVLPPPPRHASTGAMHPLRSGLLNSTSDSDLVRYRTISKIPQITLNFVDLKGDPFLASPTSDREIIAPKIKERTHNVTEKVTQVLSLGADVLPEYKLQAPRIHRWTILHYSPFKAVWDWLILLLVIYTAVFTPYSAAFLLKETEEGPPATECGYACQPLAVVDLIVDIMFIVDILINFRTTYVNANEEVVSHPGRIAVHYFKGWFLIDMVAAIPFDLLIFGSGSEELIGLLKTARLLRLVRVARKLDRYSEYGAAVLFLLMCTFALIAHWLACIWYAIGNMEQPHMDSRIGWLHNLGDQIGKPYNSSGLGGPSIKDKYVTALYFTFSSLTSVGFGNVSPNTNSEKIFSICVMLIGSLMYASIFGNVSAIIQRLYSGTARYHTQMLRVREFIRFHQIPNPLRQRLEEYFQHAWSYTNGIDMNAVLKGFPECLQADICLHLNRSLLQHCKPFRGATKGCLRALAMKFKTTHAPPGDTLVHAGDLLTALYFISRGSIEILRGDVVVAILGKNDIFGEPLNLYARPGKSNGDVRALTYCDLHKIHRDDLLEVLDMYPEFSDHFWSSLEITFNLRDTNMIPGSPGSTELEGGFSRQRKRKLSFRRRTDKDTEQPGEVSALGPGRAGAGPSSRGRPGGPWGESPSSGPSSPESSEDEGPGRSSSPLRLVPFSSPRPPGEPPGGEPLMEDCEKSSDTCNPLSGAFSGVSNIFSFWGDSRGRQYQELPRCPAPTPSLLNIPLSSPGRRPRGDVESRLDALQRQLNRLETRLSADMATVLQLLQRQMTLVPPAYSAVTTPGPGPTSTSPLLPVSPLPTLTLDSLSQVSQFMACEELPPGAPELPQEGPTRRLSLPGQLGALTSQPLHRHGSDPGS

Consider `O=C(O)c1ccccc1Nc1ccc2c(n1)N(C(=O)Nc1ccccc1)CCO2` [Compound I-145], for which, in data set [1], the “hERG inhibition ratio for the maximum tail current (IKr)” value was found to be 15%. The mutagenicity entry in data set [2] is recorded as “(−)”.

These data come from patent US20110172217A1, “RING-FUSED MORPHOLINE DERIVATIVE HAVING PI3K-INHIBITING ACTIVITY” (Shionogi & Co., Ltd., priority 2008, published 2011).
